Key:
Cln2 mRNA = Cln2 mRNA expression by semi-quantitative RT-PCR and real-time PCR in mouse primary astrocytes; assay type: cell-based
Experimental: Astroglia were isolated from mixed glial cultures as described (17,18) according to the procedure of Giulian and Baker (19). Briefly, on day 9, the mixed glial cultures were washed three times with Dulbecco's modified Eagle's medium/F-12 and subjected to shaking at 240 rpm for 2 h at 37° C. on a rotary shaker to remove microglia. After 2 days, the shaking was repeated for 24 h for the removal of oligodendroglia and to ensure the complete removal of all nonastroglial cells. The attached cells were seeded onto new plates for further studies. Total RNA was isolated from mouse primary astrocytes and human primary astrocytes using RNA-Easy Qiagen (Valencia, Calif.) kit following manufactures protocol. Semi-quantitative RT-PCR was carried out as described earlier (24) using oligo (dT) 12-18 as primer and moloney murine leukemia virus reverse transcriptase (MMLV-RT, Invitrogen) in a 20 μl reaction mixture. The resulting cDNA was appropriately amplified using Promega Master Mix (Madison, Wis.) and the following primers (Invitrogen) for murine genes: The mRNA quantification was performed using the ABI-Prism7700 sequence detection system (Applied Biosystems, Foster City, Calif.) using iTaq™ Fast Supermix With ROX (Bio-Rad, Hercules, Calif.) and the following 6-FAM/ZEN/IBFQ-labeled primers for murine genes: Cln2 and Gapdh (Integrated DNA Technologies Coralville, Iowa). The mRNA expression of the targeted genes was normalized to the level of Gapdh mRNA and data was processed by the ABI Sequence Detection System 1.6 software.

TPP1 = experiment: Western blot and densitometric analysis of TPP1 in mouse primary astrocytes; assay type: cell-based
Experimental: Astroglia were isolated from mixed glial cultures as described (17,18) according to the procedure of Giulian and Baker (19). Briefly, on day 9, the mixed glial cultures were washed three times with Dulbecco's modified Eagle's medium/F-12 and subjected to shaking at 240 rpm for 2 h at 37° C. on a rotary shaker to remove microglia. After 2 days, the shaking was repeated for 24 h for the removal of oligodendroglia and to ensure the complete removal of all nonastroglial cells. The attached cells were seeded onto new plates for further studies.
Western blotting was conducted as described earlier (27,28) with modifications. Briefly, cells were scraped in double-distilled H20 and sodium dodecyl sulfate (SDS), electrophoresed on NuPAGE® Novex® 4-12% Bis-Tris gels (Invitrogen) and proteins transferred onto a nitrocellulose membrane (Bio-Rad) using the Thermo-Pierce Fast Semi-Dry Blotter. The membrane was then washed for 15 min in TBS plus Tween 20 (TBST) and blocked for 1 hr in TBST containing BSA. Next, membranes were incubated overnight at 4° C. under shaking conditions with the following 1° antibodies; TPP1 (1:250, Santa Cruz), β-actin (1:800; Abcam, Cambridge, Mass. The next day, membranes were washed in TBST for 1 hr, incubated in 2° antibodies against 1° antibody hosts (all 1:10,000; Jackson ImmunoResearch) for 1 hr at room temperature, washed for one more hour and visualized under the Odyssey® Infrared Imaging System (Li-COR, Lincoln, Nebr.).
Protein blots were analyzed using ImageJ (NIH, Bethesda, Md.) and bands were normalized to their respective β-actin loading controls. Data are representative of the average fold change with respect to control for three independent experiments.

CC1=C(/C=C/C(C)=C/C=C/C(C)=C/C(=O)O)C(C)(C)CCC1 [RA, all-trans retinoic acid]
Cln2 level (quantitative real time PCR) (Cln2 mRNA; astrocytes with RXRα knockdown (RXRα siRNA), gemfibrozil (10 μM), RA (0.5 μM) alone and in combination): almost unresponsive
increase in Cln2 mRNA levels (quantitative real time PCR) (Cln2 mRNA; mouse primary astrocytes, 24 hrs, RA 0.5 μM, gemfibrozil 10 μM, combination 10 μM gemfibrozil and 0.5 μM RA): about 3.5 fold
induction of TPP1 (immunoblot) (TPP1; PPARα−/− astrocytes, RA (0.5 μM) and combination of gemfibrozil (10 μM) and RA (0.5 μM)): neither RA alone nor the combination could induce TPP1
TPP1 levels (Western blot, densitometric analysis) (TPP1; RXRα siRNA transfected astrocytes, gemfibrozil (10 μM), RA (0.5 μM) alone and in combination): almost no enhancement
